From paper PMC9656436, “Synthesis and Biological Evaluation of New Isoxazolyl Steroids as Anti-Prostate Cancer Agents” (International Journal of Molecular Sciences, 2022)
Like-named read-outs stand apart in the source and are kept apart here.

What was measured:
CYP17A1 [1] = target: T1, CYP17A1 (Homo sapiens, UniProt P05093); test: UV-Vis spectrophotometric titration (type I spectral response); format: binding
T1 construct: recombinant human CYP17A1, purified
T1 sequence (P05093 1-508): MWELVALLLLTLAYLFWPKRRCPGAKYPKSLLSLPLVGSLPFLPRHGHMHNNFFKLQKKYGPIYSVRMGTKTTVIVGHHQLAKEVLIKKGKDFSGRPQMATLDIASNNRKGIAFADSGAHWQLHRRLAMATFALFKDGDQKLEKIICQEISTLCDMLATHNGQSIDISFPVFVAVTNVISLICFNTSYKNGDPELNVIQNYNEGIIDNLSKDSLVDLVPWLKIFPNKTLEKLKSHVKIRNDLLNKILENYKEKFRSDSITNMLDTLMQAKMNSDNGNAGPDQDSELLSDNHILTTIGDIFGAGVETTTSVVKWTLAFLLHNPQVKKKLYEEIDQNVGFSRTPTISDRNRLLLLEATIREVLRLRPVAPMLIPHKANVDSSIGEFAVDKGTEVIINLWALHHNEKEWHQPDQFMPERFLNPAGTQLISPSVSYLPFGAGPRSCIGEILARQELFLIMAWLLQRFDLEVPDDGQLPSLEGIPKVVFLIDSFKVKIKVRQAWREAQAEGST

AR = system: T2, AR; test: cells; parameters: species or system ARE14; ARE-driven firefly luciferase reporter; AR transcriptional activity normalised to 1 nM R1881; conditions: 24 h
T2 construct: endogenous AR in ARE14 reporter cells (22Rv1-derived)
Procedure: ARE14 cells were seeded (40,000 cells/well) into the Nunc™ MicroWell™ 96-well optical plate (Thermo Fisher Scientific, Waltham, MA, USA) on the second day. The cultivation medium was discarded, and the cells were washed with PBS. Analyzed compounds were dissolved in medium supplemented with CSS (agonist mode) or CSS with 1 nM R1881 (antagonist mode) and added to cells, including CSS and 1 nM R1881 controls. Upon 24 h of incubation, cells were washed with PBS and lysed for 10 min in a lysis buffer (10 mM Tris pH = 7.4, 2 mM DCTA, 1% nonidet P40, 2 mM DTT) at 37 °C. Next, a reaction buffer (20 mM tricine pH = 7.8, 1.07 mM MgSO4^.7H2O, 5 mM ATP, 9.4 mM luciferin) was added, and the luminescence was measured using a Tecan M200 Pro microplate reader ([…]). Based on the structural similarity of novel derivatives with galeterone and other published compounds (abiraterone, 3, and [6]), we tested the effect of our compounds towards the AR-transcriptional activity. Compounds were evaluated using an AR-dependent reporter cell line (ARE14) with a firefly-luciferase gene under the control of an androgen response element.

LAPC-4 = test: cells; parameters: resazurin (Alamar blue) viability assay, resorufin fluorescence, GI50 from dose-response; conditions: Homo sapiens, LAPC4, 72 h; read-out: Viability after 72 h (GI50) LAPC-4
Procedure: (§1) Cells were seeded into the 96-well tissue culture plates and, on the other day, compounds were added in different concentrations in duplicate for 72 h. Upon treatment, the resazurin solution (Sigma Aldrich, St. Louis, MI, USA) was added for 4 h, and then the fluorescence of resorufin was measured at 544 nm/590 nm (excitation/emission) using a Fluoroskan Ascent microplate reader (Labsystems, Budapest, Hungary). The GI50 value was calculated from the dose–response curves that resulted from the measurements using GraphPad Prism 5. Antiproliferative properties of all novel steroids were tested in two AR-positive prostate cancer cell lines (LNCaP and LAPC-4) and one AR-negative cell line (DU145) using the Alamar-blue assay after 72 h treatment.

LNCaP = test: cells; parameters: resazurin (Alamar blue) viability assay, resorufin fluorescence, GI50 from dose-response; conditions: Homo sapiens, 72 h, read-out: Viability after 72 h (GI50) LNCaP
Procedure: as §1

DU145 = test: cells; parameters: resazurin (Alamar blue) viability assay, resorufin fluorescence, GI50 from dose-response; conditions: Homo sapiens, DU-145, 72 h; read-out: Viability after 72 h (GI50) DU145
Procedure: as §1

CYP17A1 [2] = target: T3, CYP17A1 (Homo sapiens, UniProt P05093); test: reconstituted […],20-lyase assay, HPLC, […] compound; format: biochemical; conditions: read-out: 17,20-Lyase Activity / Inhibition, %
T3 construct: recombinant human CYP17A1, reconstituted system; with NADPH-cytochrome P450 reductase (rat), cytochrome b5 (human)
T3 sequence (P00167 2-134 partner, one chain of several): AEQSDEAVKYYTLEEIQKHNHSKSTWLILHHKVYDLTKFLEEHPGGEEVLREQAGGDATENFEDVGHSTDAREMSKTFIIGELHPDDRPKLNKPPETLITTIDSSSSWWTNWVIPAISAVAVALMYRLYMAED

CYP17A1 [3] = target: T4, CYP17A1 (Homo sapiens, UniProt P05093); test: reconstituted […]α-hydroxylase assay, HPLC, […] compound; format: biochemical; conditions: read-out: 17α-Hydroxylase Activity / Inhibition, %
T4 construct: recombinant human CYP17A1, reconstituted system; with NADPH-cytochrome P450 reductase (rat)
T4 sequence (P05093 1-508): T1 sequence (P05093 1-508)
T4 sequence (P00388 2-678 partner): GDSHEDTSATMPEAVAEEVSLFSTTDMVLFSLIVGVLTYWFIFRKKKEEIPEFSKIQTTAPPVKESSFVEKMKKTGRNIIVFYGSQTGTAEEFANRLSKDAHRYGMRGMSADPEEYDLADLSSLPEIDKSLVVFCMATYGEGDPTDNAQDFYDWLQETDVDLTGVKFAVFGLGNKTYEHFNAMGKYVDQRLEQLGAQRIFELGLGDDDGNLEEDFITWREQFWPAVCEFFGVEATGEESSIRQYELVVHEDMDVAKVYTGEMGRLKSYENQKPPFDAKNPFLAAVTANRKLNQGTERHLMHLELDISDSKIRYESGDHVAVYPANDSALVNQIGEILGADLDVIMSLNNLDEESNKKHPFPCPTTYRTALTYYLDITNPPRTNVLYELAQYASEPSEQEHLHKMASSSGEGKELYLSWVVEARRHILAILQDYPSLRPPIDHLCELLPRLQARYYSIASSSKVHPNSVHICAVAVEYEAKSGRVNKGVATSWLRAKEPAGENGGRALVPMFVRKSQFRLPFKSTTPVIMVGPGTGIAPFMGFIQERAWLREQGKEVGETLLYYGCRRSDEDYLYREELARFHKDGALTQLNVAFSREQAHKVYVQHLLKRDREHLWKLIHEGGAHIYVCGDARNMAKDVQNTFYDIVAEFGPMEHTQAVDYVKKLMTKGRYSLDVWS

CYP17A1 [4] = target: T1, CYP17A1; test: UV-Vis spectrophotometric titration (type II spectral response); format: binding
[5] = compound alone, vs 1 nM R1881 = 100%, read-out: AGONIST MODE 2 μM
[6] = compound alone, vs 1 nM R1881 = 100%, read-out: AGONIST MODE 10 μM
[7] = compound alone, vs 1 nM R1881 = 100%, read-out: AGONIST MODE 50 μM
[8] = with 1 nM R1881, read-out: % of control remaining

SMILES	Kd (CYP17A1 [1]; read-out: Kd)	activity at 2 µM (AR; [5])	activity at 10 µM (AR; [6])	activity at 50 µM (AR; [7])	activity at 2 µM (AR; [8])	activity at 10 µM (AR; [8])	activity at 50 µM (AR; [8])	GI50 (LAPC-4)	GI50 (LNCaP)	GI50 (DU145)	inhibition at 50 µM (CYP17A1 [2])	inhibition at 50 µM (CYP17A1 [3])	Kd (CYP17A1 [1])	Kd (CYP17A1 [4])
CCCCc1cc(C[C@H]2CC[C@H]3[C@@H]4CC=C5C[C@@H](O)CC[C@]5(C)[C@H]4CC[C@]23C)on1 [24d, 17β-((3-Butylisoxazol-5-yl)methyl)-androst-5-en-3β-ol]	1.5 ± 0.21 µM	17.8 ± 0.1%	21.1 ± 1.6%	18.6 ± 3.6%	109 ± 12.1%	113 ± 21.1%	104 ± 42.6%	> 50 µM	> 50 µM	> 50 µM				
CC(C)(O)c1cc(C[C@H]2CC[C@H]3[C@@H]4CC=C5C[C@@H](O)CC[C@]5(C)[C@H]4CC[C@]23C)on1 [24j, (17R)-17-((3-(2-Hydroxypropan-2-yl)isoxazol-5-yl)methyl)-androst-5-en-3β-ol]	1.9 ± 0.23 µM	14.4 ± 2.8%	12.6 ± 0.1%	6.1 ± 1.5%	100 ± 13.5%	84.8 ± 17.4%	21.6 ± 7.8%	18.2 ± 1.2 µM	25.8 ± 0.6 µM	> 50 µM				
C[C@]12CC[C@H](O)CC1=CC[C@@H]1[C@@H]2CC[C@]2(C)C(n3cnc4ccccc43)=CC[C@@H]12 [Gal, galeterone]		15.4 ± 0.4%	10.8 ± 3.1%	2.4 ± 1.1%	65.2 ± 6.1%	35.1 ± 3.3%	3 ± 1.8%	28.6 ± 0.6 µM	46.8 ± 0.1 µM	47.6 ± 0.2 µM				
C[C@]12CC[C@H]3[C@@H](CC=C4C[C@@H](O)CC[C@@]43C)[C@@H]1CC[C@@H]2Cc1ccon1 [41a, (17R)-17-(Isoxazol-3-ylmethyl)-androst-5-en-3β-ol]		14.5 ± 1.5%	14.7 ± 0.1%	12.1 ± 1.3%	98.2 ± 17.5%	73.7 ± 14.9%	50.8 ± 18.8%	> 50 µM	> 50 µM	> 50 µM	42.3%			
C[C@]12CC[C@H]3[C@@H](CC=C4C[C@@H](O)CC[C@@]43C)[C@@H]1CC[C@@H]2Cc1cc(C2CC2)no1 [24c, (17R)-17-((3-Cyclopropylisoxazol-5-yl)methyl)-androst-5-en-3β-ol]												45.7%		
CC(=O)[C@H]1CC[C@H]2[C@@H]3CCC4=CC(=O)CC[C@]4(C)[C@H]3CC[C@]12C [Progesterone]													< 1 µM	
C[C@]12CC[C@H]3[C@@H](CC=C4C[C@@H](O)CC[C@@]43C)[C@@H]1CC[C@@H]2Cc1cc(-c2ccccc2)no1 [24e, (17R)-17-((3-Phenylisoxazol-5-yl)methyl)-androst-5-en-3β-ol]		14.7 ± 0.5%	14.2 ± 1.4%	12.8 ± 0.2%	101 ± 9.5%	101 ± 13.6%	125 ± 27.4%	> 50 µM	> 50 µM	> 50 µM				
C[C@]12CC[C@H]3[C@@H](CC=C4C[C@@H](O)CC[C@@]43C)[C@@H]1CC[C@@H]2Cc1cc(CCl)no1 [compound 38, (17R)-17-((3-(Chloromethyl)isoxazol-5-yl)methyl)-androst-5-en-3β-ol]		14.6 ± 1%	13 ± 0.4%	7.3 ± 1.1%	96.1 ± 11.2%	92.6 ± 20.5%	78.2 ± 24.9%	> 50 µM	> 50 µM	> 50 µM				
C[C@]12CC[C@H]3[C@@H](CC=C4C[C@@H](O)CC[C@@]43C)[C@@H]1CC[C@@H]2Cc1cc(-c2cccnc2)on1 [41f, (17R)-17-((5-(Pyridin-3-yl)isoxazol-3-yl)methyl)-androst-5-en-3β-ol]											41.1%			
CC(C)c1cc(C[C@H]2CC[C@H]3[C@@H]4CC=C5C[C@@H](O)CC[C@]5(C)[C@H]4CC[C@]23C)on1 [24b, (17R)-17-((3-isopropylisoxazol-5-yl)methyl)-androst-5-en-3β-ol]												45%		
C[C@]12CC[C@H]3[C@@H](CC=C4C[C@@H](O)CC[C@@]43C)[C@@H]1CC[C@@H]2CC(=O)/C(OC(=O)n1ccnc1)=C(\N)C1CC1 [compound 27, (E)-1-Amino-4-((17R)-3β-hydroxy-androst-5-en-17-yl)-1-cyclopropyl-3-oxobut-1-en-2-yl 1H-imidazole-1-carboxylate]		17.4 ± 0.5%	20.9 ± 2.9%	20.4 ± 4.2%	89.7 ± 9.9%	62 ± 14.8%	63.5 ± 8%	> 50 µM	> 50 µM	> 50 µM				
C[C@]12CC[C@H](O)CC1=CC[C@@H]1[C@@H]2CC[C@]2(C)C(c3cccnc3)=CC[C@@H]12 [abiraterone]														< 1 µM
C[C@]12CC[C@H]3[C@@H](CC=C4C[C@@H](O)CC[C@@]43C)[C@@H]1CC[C@@H]2Cc1cc(CO)no1 [compound 32, (17R)-17-((3-(Hydroxymethyl)isoxazol-5-yl)methyl)-androst-5-en-3β-ol]	13.4 ± 2.38 µM	14 ± 1.1%	12.1 ± 2.7%	14.6 ± 0.5%	99.7 ± 17.4%	87.8 ± 20.9%	31.1 ± 13.3%	18.9 ± 7.2 µM	19.5 ± 0.1 µM	> 50 µM				
C[C@]12CC[C@H]3[C@@H](CC=C4C[C@@H](O)CC[C@@]43C)[C@@H]1CC[C@@H]2Cc1ccno1 [24a, (17R)-(Isoxazol-5-ylmethyl)-androst-5-en-3β-ol]	0.13 ± 0.02 µM													
